Columns and labels:
[1] = Blood CBD and 7-COOH-CBD levels pre- and post-car ride (mass spectrometry); assay type: in vivo, Beagle dogs
Description: (§1) Anxiety behavioral data measures were recorded, as was serum cortisol levels (an anxiety/stress-related biomarker), heart rate and blood cannabidiol content. Subjects were dosed once during each arm, approximately four (4) hours prior to the car ride test. Blood samples for measurements of cortisol and CBD were taken on two occasions during each arm. The first was on day 1, a no treatment day. The second was within 10 minutes (±2 minutes) following the car ride. Both blood samples were taken as closely as possible to the same time of day. Heart rate was continuously measured during the car ride. There were seven days of washout between treatment days. For the sake of scheduling, the 16 dogs were tested in two cohorts, with eight (8) dogs tested per cohort day. The test schedule that followed is outlined in Table 2.
Blood was collected for health profiling on day −8 and 2 mL and was placed into each a potassium oxalate/sodium fluoride, SST and K2EDTA tube. Whole blood collections for the purpose of cortisol and cannabidiol analysis were taken on eight occasions. Four (4) ml blood samples were collected from a suitable vein according to standard operating procedure for baseline 1 day prior to the car and 10 minutes (±2 minutes) after each car ride for cortisol and cannabidiol analysis. Prior to the baseline sample, subjects were placed in a quiet metabolic cage for 30 minutes (±2 minutes) for a more accurate reading of cortisol at rest. Two (2) ml blood were placed into a 2 ml SST tube and allowed to set until clotted. Serum was separated by centrifugation (2800-3200 rpm for 10 minutes at room temperature) and removed into a new serum blood tube. One aliquot of serum (0.5 ml) was placed into a cryovial and stored at approximately −80° C. for future analysis as necessary. […] Samples were analysed by mass spectrometry for the presence of cannabidiols and in particular CBD.
Post-car ride CBD levels were analyzed as a function of Dose using non-parametric analysis of variance.
Pre-car ride CBD levels were analyzed as a function of previous Dose using non-parametric analysis of variance. […]

[2] = test system: noise-induced model of fear and anxiety; assay: Noise-induced (thunderstorm) model of fear and anxiety in dogs, single dose; assay type: in vivo, Beagle dogs
Description: A Noise-Induced Model for fear and anxiety was used to assess the anxiolytic properties of a cannabidiol formulation on dog subjects. An objective of this study is to determine the anxiolytic effectiveness of an orally dosed CBD enriched cannabinoid formulation at three dose levels (25 mg/kg, 12 mg/kg, and 4 mg/kg) as compared to a placebo control in a noise-induced model of fear and anxiety.
A preliminary health screen including veterinary examinations and CBC/clinical chemistry blood work analysis was first used to select thirty-two (32) Beagle dogs for the Baseline Screening phase of this study. […] A four-arm Williams design was used, with four treatment groups of 4 animals per group. Subjects were allocated to the treatment groups (n=4) balanced for sex, serum cortisol, and behavioural (activity) response. On Days 4, 11, 18, and 25 (n=16), dogs were tested on the thunderstorm procedure after administration of one of three dose levels of test article or placebo. Anxiety was assessed by both live monitoring of specific behaviours and through post-trial monitoring of recorded video files, by continuous recording of heart rate during the test, and by analyzing serum cortisol levels after the test. Subjects were dosed once during each arm of the study, approximately 4 hours prior to the thunderstorm test. Blood was taken twice during each arm of the study including baseline phase; once for the purpose of determining resting cortisol levels, collected two days before thunderstorm procedures, and once for the purpose of determining post-thunderstorm cortisol levels as well as blood levels CBD and 7-COOH-CBD, collected 5 minutes (±2 minutes) following the test. Both blood collections were taken at about same time of day. There was a 6-day washout period between treatment days for all subjects.
On the day of testing, each group received a single dose of their assigned treatment according to Table 7 followed by a 6-day washout period prior to the next assessment Animals were dosed 4 hours (±10 minutes) prior to each thunderstorm assessment, at the same time of day on each dosing day. Subjects received either placebo (MCT oil) or CBD extract diluted to the correct concentration of either 4, 12 or 25 mg/kg with appropriate volume of MCT oil to a final volume of 4 mL for each dose. The test article was administered orally by syringe with attention to complete delivery and retention of the intended dose according to standard operating procedures. In the event that a subject vomited or regurgitated within the first 30 minutes of administration, the product was re-administered and time of re-dose was recorded. […]
The thunderstorm test was performed on Study Day −5, 4, 11, 18, and 25; this took place in the open field arena. During the 9-minute task, the first three minutes was designated as the pre-thunder interval, during which the dogs were allowed to freely explore the room in the absence of any external stimuli. During minutes 4-6 (thunder interval) a recorded thunderstorm track was played over a stereo system at approximately 105 dB. Animal behaviour was audio and video recorded for a total of 9 minutes and the following parameters assessed:
1. Distance travelled (m): the distance the animal moves within the room will be tracked and recorded in meters.
2. […] All other behaviours were considered “active” behaviours.
No stimuli were provided over the last three minutes (minutes 7-9). All behavioural parameters were measured as described for the open field test. Video files of each session were recorded to DVD and archived with the study files. […]

[3] = test system: thunderstorm noise-induced model of anxiety; assay: Thunderstorm noise-induced model of anxiety after chronic (28-day) CBD administration; assay type: in vivo, dogs
Description: The present study was conducted to evaluate the potential antianxiety effects of CBD after chronic administration using a thunderstorm model of anxiety. A placebo-controlled 28-day CBD dosing, behavioral and safety study was conducted in which the anti-anxiety behavioral effects of chronic CBD were evaluated after 7 and 21 days of CBD administration. Anxiety-related behavioral assessments were conducted using a thunderstorm noise-induced model of anxiety. Four different doses of CBD isolate (1, 2, 4 and 12 mg CBD/kg dog's body weight) were administered orally, as a liquid, once a day to fasted dogs. The primary anti-anxiety measures included blood cortisol levels, heart rate, distance traveled, head movements, global anxiety and scanning behavior.

[4] = test system: car ride model of fear and anxiety; assay: Car-ride model of fear and anxiety in dogs (10-minute car ride); assay type: in vivo, Beagle dogs; conditions: for Cortisol response to car ride: differed significantly from baseline
Description: A Car-Ride Model for fear and anxiety was used to assess the anxiolytic properties of a cannabidiol formulation on dog subjects. One of the objectives of this study was to determine the anxiolytic effectiveness of orally dosed CBD-enriched cannabidiol formulation at three dose levels, namely at: 4 mg/kg CBD; 12 mg/kg CBD; and 25 mg/kg CBD as compared to a placebo control in a car ride model of fear and anxiety.
Enrollment into the study was based on the subject's baseline activity response to a car ride. Twenty-four (24) Beagle Dogs were screened for car-ride induced elevation of blood cortisol. The initial screening occurred over a 10-day period. Sixteen of the 24 dogs were selected to be used in the subsequent efficacy trial. The schedule of operations for the baseline screen is outlined in Table 1.
The subsequent dose-finding efficacy trial was a blinded pre-clinical trial with sixteen (16) dogs. Dogs were allocated to four treatment groups each containing four (4) dogs based on the baseline response to the car-ride model. In the car-ride model, the dogs were placed in a travel crate secured in the back of a transport vehicle. Anxiety was assessed by monitoring behavior and heart rate during the car ride, and by blood cortisol measures after the car ride. A Williams design was used in which 3 dose levels of the drug and a placebo control were evaluated, with every dog being tested on every condition. Thus, the study had four cycles: four (4) groups of four (4) dogs each, with two (2) males and two (2) females per group, were given four (4) cycles of either one of three increasing doses of a cannabidiol-enriched liquid formulation or the vehicle (medium chain triglyceride solution without cannabidiol), each in a volume of 4 mL. Actives or placebo were administered on the fourth day of each cycle, four (4) hours (±15 minutes) before exposure to a 10-minute car ride in a controlled setting. Each dosing cycle was seven (7) days, so there were seven (7) days between doses.
as §1
Treatment conditions as follows: High Dose: 25 mg/kg CBD; Medium Dose: 12 mg/kg CBD; Low Dose: 4 mg/kg CBD; Placebo control: MCT (Medium Chain Triglyceride) solution. The animals were handled and cared for as similarly as possible throughout the study. The study used a Williams design. The experimental unit were one individual dog and the number of dogs per treatment sequence was four (4), each containing two (2) males and two (2) females.
The study was a blinded pre-clinical trial carried out in a standardized environment. Sixteen (16) dogs (8 males and 8 females) were included in the study. A Williams design, in which all test subjects receive all three dosages and one placebo were used. Four (4) groups of four (4) dogs each, with two (2) males and two (2) females per group, will be given four (4) cycles of either one of three increasing doses of a Cannabidiol-enriched liquid formulation or the vehicle (medium chain triglyceride solution without cannabidiol), each in a volume of 4 mL. Actives or placebo were administered on the fourth day of each cycle, four (4) hours (±15 minutes) before exposure to a 10-minute car ride. […]

[5] = Phase 1, 12 mg/kg CBD oral, n=4 dogs
[6] = Phase 1, 25 mg/kg CBD oral, n=4 dogs
[7] = all four phases combined, 25 mg/kg CBD oral, n=16 dogs, p=0.05

Compound: C=C(C)[C@@H]1CCC(C(=O)O)=C[C@H]1c1c(O)cc(CCCCC)cc1O [7-COOH-CBD]
- 7-COOH-CBD levels across the 4 dose levels ([1]; post-car ride, repeated measures ANOVA): highly significant effect of dose

Compound: C=C(C)[C@@H]1CCC(C)=C[C@H]1c1c(O)cc(CCCCC)cc1O [CBD, cannabidiol]
- Pre-car ride CBD levels as a function of previous dose ([1]; 7 days after previous dose, repeated measures ANOVA, 0.02 level): Previous dose effect was significant
- Post-car ride CBD levels as a function of dose ([1]; oral 4, 12, 25 mg/kg CBD or placebo 4 h before car ride, non-parametric analysis of variance, p=0.0000): highly significant dose effect
- Distance travelled post-thunder (minutes 7-9), placebo vs CBD ([2]; 25 mg/kg oral 4 h before test, p=0.0445, LMM with treatment and order): significantly larger with placebo than 25 mg/kg
- Inactivity frequency post-thunder, placebo vs CBD ([2]; 25 mg/kg oral, p=0.0245, LMM with treatment and order): significantly smaller with placebo than 25 mg/kg
- Activity during minutes 1-3 of conditioned anxiety testing ([2]; CBD 4, 12, 25 mg/kg vs placebo): no significant differences
- Distance travelled during the 3-minute post-thunder interval (mean±SD) [2, 5]: 3.9±3.9 m
- Reduction of distance travelled during the 3-minute post-thunder interval vs placebo [2, 5]: 72%
- Distance travelled during the 3-minute post-thunder interval (mean±SD) [2, 6]: 5.5±4.0 m
- Distance travelled during the 3-minute thunderstorm noise (mean±SD) [2, 6]: 17.0±8.1 m
- Reduction of distance travelled during the 3-minute post-thunder interval vs placebo [2, 6]: 61%
- Reduction of distance travelled during the 3-minute thunderstorm noise vs placebo [2, 6]: 29%
- Distance travelled during the 3-minute post-thunder interval (mean±SD) [2, 7]: 3.5±3.9 m
- Reduction of distance travelled during the 3-minute post-thunder interval vs placebo [2, 7]: 65%
- Inactivity, effect of dose ([2]; repeated measures ANOVA, pre-thunder, thunder, post-thunder, p value for dose effect 0.762): no other significant main effects or interactions
- Cortisol, day 21 vs day 7 ([3]; 1 and 2 mg CBD/kg oral once a day): greater decrease in cortisol on day 21 than day 7
- Visual scanning ([3]; Day 7, 1 mg/kg): most reduced
- Global Anxiety Scores during thunder-noise ([3]; after 7 and 21 days of treatment, all groups): decreased
- Thunderstorm-induced body movements ([3]; chronic CBD administration): generally decreased
- Heart rate ([3]; chronic CBD treatment 1, 2, 4, 12 mg/kg oral once a day): not affected
- Global Anxiety Scores during thunder-noise, group with greatest decrease ([3]; day 7, 2 mg/kg): greatest decreases
- Head movements ([3]; day 7, two lowest CBD treatment groups (1 and 2 mg/kg)): decreased by day 7
- Global Anxiety Scores during thunder-noise, groups with greatest decrease ([3]; day 21, 1, 2 and 4 mg/kg): greatest decreases
- Visual scanning ([3]; day 21, 1 and 2 mg/kg): most reduced
- Head movements ([3]; day 21, all treatment groups): decline in head movements
- Cortisol ([3]; lowest 3 doses (1, 2, 4 mg/kg) oral once a day, days 7 and 21): decline in cortisol
- Anti-anxiety effects (stress biomarker, body movements, visual scanning, global anxiety scores) ([3]; three lower CBD doses (1, 2, 4 mg/kg) oral once a day): observable anti-anxiety effects
- Dogs that lay down during the 10-minute car ride ([4]; Phase 1, 2 of 4 dogs at each of 4, 12, or 25 mg/kg CBD oral, placebo 0 of 4): 50%
- Number of dogs across the CBD treatments who lay down during the car ride ([4]; Phase 1, CBD 4, 12, 25 mg/kg combined, placebo none of 4): 6 of 12 dogs
- Mean heart rate, effect of treatment ([4]; baseline, placebo, 4, 12 and 25 mg/kg oral, pre-test, min 1-5, min 5-10 of car ride, repeated measures ANOVA): no other significant main effects or interactions
- Post-car ride cortisol levels in female dogs ([4]; female dogs, CBD 4, 12, 25 mg/kg oral 4 h before car ride (FIG. 11)): decrease in cortisol levels
- Cortisol response to car ride ([4]; high dose 25 mg/kg CBD oral): more effective in reducing the cortisol response than the placebo and low dose treatments
- Cortisol response to car ride ([4]; medium dose 12 mg/kg CBD oral): more effective in reducing the cortisol response than the placebo and low dose treatments

— US11752127B2, “Methods and compositions for treatment of anxiety in animals” (CANOPY GROWTH CORPORATION, priority 2019, dated 2023)
